# Measurements reported in patent US20180325914A1, “INCREASING STORAGE OF VITAMIN A, VITAMIN D AND/OR LIPIDS” (Salk Institute for Biological Studies, priority 2014, published 2018).
# Test system: primary HSCs
# Settings: mRNA-Seq expression, Day_6_JQ1
structure (smiles),measurement,value
"Cc1sc2c(c1C)C(c1ccc(Cl)cc1)=N[C@@H](CC(=O)OC(C)(C)C)c1nnc(C)n1-2 [JQ1, (S)-tert-butyl 2-(4-(4-chlorophenyl)-2,3,9-trimethyl-6H-thieno[3,2-f][1,2,4]triazolo[4,3-a][1,4]diazepin-6-yl)acetate]",Nav2 value_2,5.311
same,Ndn value_2,33.2623
same,Nnmt value_2,30.0607
same,Npr2 value_2,10.1828
same,Nradd value_2,15.4656
same,Nuak1 value_2,12.6565
same,Nudt18 value_2,6.501
same,Ogdhl value_2,4.726
same,Paqr8 value_2,7.424
same,Pcolce value_2,103.689
same,Pde4dip value_2,14.9114
same,Pdia5 value_2,20.7466
same,Pgcp value_2,20.5624
same,Pgm2 value_2,36.9612
same,Pkig value_2,41.8645
same,Pla2g4a value_2,14.8571
same,Plod3 value_2,47.8896
same,Ppp2r5b value_2,15.5804
same,Praf2 value_2,50.8557
same,Prnp value_2,204.182
same,Psd3 value_2,5.579
same,Ptger3 value_2,6.064
same,Ptgfrn value_2,24.2749
same,Ptk2b value_2,17.1497
same,Qsox1 value_2,91.7197
same,Rasl11a value_2,68.0496
same,Rasl11b value_2,27.3606
same,Reep5 value_2,42.7167
same,Rftn1 value_2,20.5933
same,Rhoq value_2,36.4737
same,Rian value_2,23.3478
same,Samd4 value_2,15.2321
same,Scd1 value_2,23.3211
same,Sec23a value_2,28.8101
same,Sepw1 value_2,95.2318
same,Serping1 value_2,119.681
same,Setbp1 value_2,2.434
same,Shroom3 value_2,5.757
same,Slc7a6 value_2,20.2814
same,Slc24a3 value_2,3.111
same,Snurf value_2,6.708
same,Steap2 value_2,17.4478
same,Thbs2 value_2,44.7287
same,Tmem9 value_2,20.5522
same,Tmem176a value_2,136.733
same,Tpm2 value_2,114.662
same,Ttc19 value_2,10.9985
same,Ufsp2 value_2,21.3133
same,Ypel5 value_2,34.2738
same,Zfp651 value_2,5.6272
same,Zmat3 value_2,18.2014
same,Zranb3 value_2,2.608
same,"value_2, gene 2210013O21Rik",38.055
same,"value_2, gene 2610018G03Rik",7.783
same,"value_2, gene 2700094K13Rik",52.964
same,"value_2, gene 2810055F11Rik",9.372
same,"value_2, gene AI464131",6.393
same,"value_2, gene Acadsb",26.5141
same,"value_2, gene Aes",188.935
same,"value_2, gene Agl",8.667
same,"value_2, gene Ankrd44",7.9209
same,"value_2, gene Aplp1",20.7172
same,"value_2, gene Arhgap1",99.931
same,"value_2, gene Aurka",17.2799
same,"value_2, gene Bace1",40.101
same,"value_2, gene Bmpr1a",33.5187
same,"value_2, gene Bsg",560.767
same,"value_2, gene Cacna2d1",7.615
same,"value_2, gene Calm3",185.514
same,"value_2, gene Ccdc3",44.0572
same,"value_2, gene Ccdc102a",12.129
same,"value_2, gene Ccdc122",5.501
same,"value_2, gene Ccne1",13.7889
same,"value_2, gene Cdc42bpg",9.647
same,"value_2, gene Cenpa",18.2009
same,"value_2, gene Cfh",33.8709
same,"value_2, gene Clip3",25.4738
same,"value_2, gene Cpeb2",7.639
same,"value_2, gene Cpxm1",119.242
same,"value_2, gene Ctsf",19.6316
same,"value_2, gene Cxxc5",28.6295
same,"value_2, gene Dhcr24",17.3636
same,"value_2, gene Dynlt3",74.0523
same,"value_2, gene Efna4",6.053
same,"value_2, gene Ephb2",12.3025
same,"value_2, gene Fam26e",11.6803
same,"value_2, gene Fam168a",23.5828
same,"value_2, gene Fat1",68.0733
same,"value_2, gene Fkbp9",153.585
same,"value_2, gene Fstl1",883.839
same,"value_2, gene Gadd45g",151.82
same,"value_2, gene Ggcx",22.6363
same,"value_2, gene Gjc2",5.148
same,"value_2, gene Gpam",13.2457
same,"value_2, gene Gpnmb",100.919
same,"value_2, gene Gpr153",15.34
same,"value_2, gene Grb10",117.152
same,"value_2, gene Gstm4",11.4343
same,"value_2, gene Gtse1",16.4741
same,"value_2, gene Gucylb3",35.4413
same,"value_2, gene Gxylt2",8.031
same,"value_2, gene Hic1",40.7263
same,"value_2, gene Hspb6",15.1361
same,"value_2, gene Htra1",128.76
same,"value_2, gene Irs2",11.6492
same,"value_2, gene Itgb5",206.046
